Earlier results as cited in patent publication US20080103124A1, “Cefdinir-containing pharmaceutical composition” (ASTELLAS PHARMA INC., priority 2006, published 2008).
Where two headings read alike, the source gives them in different places.

Conditions: human beings

- absolute bioavailability (following administration of a 300 mg capsule): 21%
- absolute bioavailability (following administration of an oral suspension of 250 mg/5 mL): 25%
SMILES: C=CC1=C(C(=O)O)N2C(=O)[C@@H](NC(=O)/C(=N\O)c3csc(N)n3)[C@H]2SC1 [cefdinir]
